Experimental findings from patent US20200216439A1, “HETERO-1,5,6,7-TETRAHYDRO-4H-INDOL-4-ONES” (BAYER PHARMA AKTIENGESELLSCHAFT, priority 2015, published 2020) are described below.

Read-outs that look alike come from different tables or passages of the source.

The test deals with T1, catalytic domain of human Bub1 (amino acids 704-1085) (Homo sapiens, UniProt O43683).
T1 construct: catalytic domain of human Bub1 (amino acids 704-1085); His6 (N); made in house; host or cells: Hi5 insect cells
Put plainly: Bub1 kinase assay (TR-FRET). The class given is biochemical. The gist of the method:
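Eleven concentrations (0.1 nM–20 μM, duplicate) fitted by 4-parameter logistic for IC50. Read-out: EDTA-stopped TR-FRET (665/620 nm) detecting anti-phosphoserine binding to biotin-peptide (1 μM). Reaction used 10 μM ATP, 60 min at 22 °C, after 15 min compound preincubation with His-tagged human Bub1 704-1085.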
On the technique in general: In TR-FRET formats the signal depends on donor and acceptor labels being close together.

Where [1] appears, read: TR-FRET, ATP 10 μM, peptide substrate 1 μM, 60 min at 22° C., average or median if tested more than once, read-out: Inhibition of Bub1 kinase IC50.

T1 sequence (O43683 704-1085): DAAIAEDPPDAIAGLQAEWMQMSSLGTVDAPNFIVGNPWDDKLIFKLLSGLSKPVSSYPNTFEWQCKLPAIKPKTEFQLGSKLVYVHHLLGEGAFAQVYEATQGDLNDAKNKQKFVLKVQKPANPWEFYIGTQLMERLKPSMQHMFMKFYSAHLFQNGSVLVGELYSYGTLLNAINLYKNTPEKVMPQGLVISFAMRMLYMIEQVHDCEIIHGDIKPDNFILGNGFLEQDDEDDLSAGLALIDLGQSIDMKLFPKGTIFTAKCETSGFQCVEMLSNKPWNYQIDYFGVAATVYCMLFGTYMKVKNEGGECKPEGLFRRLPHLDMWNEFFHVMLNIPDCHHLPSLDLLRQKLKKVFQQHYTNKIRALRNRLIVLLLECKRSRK

As usually defined, the IC50 is the concentration that gives 50% inhibition. In the case of `O=C1CN(C(=O)Nc2cccnc2)Cc2[nH]c(-c3ccncc3)c(Nc3ccccc3)c21` [Example 97, 4-Oxo-3-(phenylamino)-N-(pyridin-3-yl)-2-(pyridin-4-yl)-1,4,5,7-tetrahydro-6H-pyrrolo[2,3-c]pyridine-6-carboxamide], the 50% inhibitory concentration (IC50) under setting [1] turned out to be 0.059 µM.

`CN(C)C(=O)N1CC(=O)c2c([nH]c(-c3ccnc(NC(=O)[C@@H]4C[C@@H]4F)c3)c2Nc2ccccc2)C1` [Example 207, 2-[2-([(1S,2S)-2-Fluorocyclopropyl]carbonylamino)pyridin-4-yl]-N,N-dimethyl-4-oxo-3-(phenylamino)-1,4,5,7-tetrahydro-6H-pyrrolo[2,3-c]pyridine-6-carboxamide]: the IC50 under setting [1] turned out to be 0.003 µM.

Take `O=C1CN(C(=O)N2CCOCC2)Cc2[nH]c(-c3ccncc3)c(Nc3ccccc3)c21` [Example 94, 6-(Morpholin-4-ylcarbonyl)-3-(phenylamino)-2-(pyridin-4-yl)-1,5,6,7-tetrahydro-4H-pyrrolo[2,3-c]pyridin-4-one]: the IC50 under setting [1] amounted to 0.003 µM.

Take `COC(=O)N1CC(=O)c2c([nH]c(-c3ccnc(NC(=O)C4CC4(F)F)c3)c2Nc2ccccc2)C1` (racemic) [Example 146, Methyl 3-anilino-2-[2-({[(1RS)-2,2-difluorocyclopropyl]carbonyl}amino)pyridin-4-yl]-4-oxo-1,4,5,7-tetrahydro-6H-pyrrolo[2,3-c]pyridine-6-carboxylate]: the half-maximal inhibitory concentration (IC50) under setting [1] was 0.01 µM.

On to `CC(C)OC(=O)N1CC(=O)c2c([nH]c(-c3ccnc(NC(=O)[C@@H]4C[C@@H]4F)c3)c2Nc2ccccc2)C1` [Example 216, Propan-2-yl 2-[2-([(1S,2S)-2-fluorocyclopropyl]carbonylamino)pyridin-4-yl]-4-oxo-3-(phenylamino)-1,4,5,7-tetrahydro-6H-pyrrolo[2,3-c]pyridine-6-carboxylate], for which the concentration for half-maximal inhibition (IC50) under setting [1] is 0.006 µM.

For `COc1ccc(C(=O)Nc2cc(-c3[nH]c4c(c3Nc3ccccc3)C(=O)CN(C(=O)SC(C)(C)C)C4)ccn2)cc1F` [Example 305, S-tert-butyl 3-anilino-2-{2-[(3-fluoro-4-methoxybenzoyl)amino]pyridin-4-yl}-4-oxo-1,4,5,7-tetrahydro-6H-pyrrolo[2,3-c]pyridine-6-carbothioate], under setting [1], the IC50 stood at 0.233 µM.

In the case of `O=C1CN(C(=O)N2CCNC2=O)Cc2[nH]c(-c3ccncc3)c(Nc3ccccc3)c21` [Example 91, 6-[(2-Oxoimidazolidin-1-yl)carbonyl]-3-(phenylamino)-2-(pyridin-4-yl)-1,5,6,7-tetrahydro-4H-pyrrolo[2,3-c]pyridin-4-one], the IC50 under setting [1] was determined as 0.014 µM.

`CC(C)(O)CC(=O)N1CC(=O)c2c([nH]c(-c3ccnc(NC(=O)[C@@H]4C[C@@H]4F)c3)c2Nc2ccccc2)C1` [Example 201]: the IC50 under setting [1] is 0.006 µM.

As for `COc1cnccc1-c1[nH]c2c(c1Nc1ccccc1)C(=O)CN(S(=O)(=O)C(C)C)C2` [Example 109, 2-(3-Methoxypyridin-4-yl)-3-(phenylamino)-6-(propan-2-ylsulfonyl)-1,5,6,7-tetrahydro-4H-pyrrolo[2,3-c]pyridin-4-one], the IC50 under setting [1] was 0.007 µM.

Turning to `CN(C)S(=O)(=O)N1CC(=O)c2c([nH]c(-c3ccncc3OCC3CC3)c2Nc2ccccc2)C1` [Example 282, 2-[3-(Cyclopropylmethoxy)pyridin-4-yl]-N,N-dimethyl-4-oxo-3-(phenylamino)-1 4,5,7-tetrahydro-6H-pyrrolo[2,3-c]pyridine-6-sulfonamide], the concentration for half-maximal inhibition (IC50) under setting [1] was determined as 0.012 µM.

In the case of `CNC(=O)N1CC(=O)c2c([nH]c(-c3ccncc3OCC(F)(F)F)c2Nc2ccccc2)C1` [Example 243, N-Methyl-44-oxo-3-(phenylamino)-2-[3-(2,2,2-trifluoroethoxy)pyridin-4-yl]-1,4,5,7-tetrahydro-6H-pyrrolo[2,3-c]pyridine-6-carboxamide], under setting [1], the concentration for half-maximal inhibition (IC50) was determined as 0.055 µM.

Consider `COc1cc(C(=O)Nc2cc(-c3[nH]c4c(c3Nc3ccccc3)C(=O)CN(C(=O)N3CCCC3)C4)ccn2)ccc1F` [Example 262, 4-Fluoro-3-methoxy-N-4-[4-oxo-3-(phenylamino)-6-(pyrrolidin-1-ylcarbonyl)-4,5,6,7-tetrahydro-1H-pyrrolo[2,3-c]pyridin-2-yl]pyridin-2-ylbenzamide], for which the IC50 under setting [1] was 0.008 µM.

Consider `CC(=O)N1CC(=O)c2c([nH]c(-c3ccncc3OCC(F)F)c2Nc2ccccc2)C1` [Example 228, 6-Acetyl-3-anilino-2-[3-(2,2-difluoroethoxy)pyridin-4-yl]-1,5,6,7-tetrahydro-4H-pyrrolo[2,3-c]pyridin-4-one], for which the half-inhibitory concentration (IC50) under setting [1] worked out at 0.033 µM.

On to `O=C(Nc1cc(-c2[nH]c3c(c2Nc2ccccc2)C(=O)COC3)ccn1)c1cncs1` [Example 51, N-{4-[4-Oxo-3-(phenylamino)-1,4,5,7-tetrahydropyrano[3,4-b]pyrrol-2-yl]pyridin-2-yl}-1,3-thiazole-5-carboxamide], for which the 50% inhibitory concentration (IC50) under setting [1] was determined as 0.044 µM.

With `COc1cnccc1-c1[nH]c2c(c1Nc1ccccc1)C(=O)CN(S(=O)(=O)C(F)F)C2` [Example 110, 6-[(Difluoromethyl)sulfonyl]-2-(3-methoxypyridin-4-yl)-3-(phenylamino)-1,5,6,7-tetrahydro-4H-pyrrolo[2,3-c]pyridin-4-one], under setting [1], the 50% inhibitory concentration (IC50) was found to be 0.006 µM.

In the case of `COC(=O)N1CC(=O)c2c([nH]c(-c3ccnc(NC(=O)[C@@H]4C[C@@H]4F)c3)c2Nc2ccccc2)C1` (relative stereo) [Example 139, Methyl 3-anilino-2-[2-({[rel-(1S,2S)-2-fluorocyclopropyl]carbonyl}amino)pyridin-4-yl]-4-oxo-1,4,5,7-tetrahydro-6H-pyrrolo[2,3-c]pyridine-6-carboxylate], the IC50 under setting [1] amounted to 0.007 µM.

`COc1ccc(C(=O)Nc2cc(-c3c(Nc4ccccc4)c4c(n3C)CN(C(=O)OC(C)(C)C)CC4=O)ccn2)cc1F` [Example 286, tert-Butyl 2-2-[(3-fluoro-4-methoxybenzoyl)amino]pyridin-4-yl-1-methyl-4-oxo-3-(phenylamino)-1,4,5,7-tetrahydro-6H-pyrrolo[2,3-c]pyridine-6-carboxylate]: under setting [1], the IC50 came to 1.05 µM.

For the molecule `CC(C)S(=O)(=O)N1CC(=O)c2c([nH]c(-c3ccncc3)c2Nc2ccccc2)C1` [Example 67, 3-(phenylamino)-6-(propan-2-ylsulfonyl)-2-(pyridin-4-yl)-1,5,6,7-tetrahydro-4H-pyrrolo[2,3-c]pyridin-4-one], the IC50 under setting [1] amounted to 0.006 µM.

For `CC(=O)Nc1cc(-c2[nH]c3c(c2Nc2ccccc2)C(=O)CN(C(=O)c2cnc[nH]2)C3)ccn1` [Example 113, N-{4-[6-(1H-Imidazol-5-ylcarbonyl)-4-oxo-3-(phenylamino)-4,5,6,7-tetrahydro-1H-pyrrolo[2,3-c]pyridin-2-yl]pyridin-2-yl}acetamide], under setting [1], the half-maximal inhibitory concentration (IC50) came to 0.034 µM.

For the molecule `CC(=O)Nc1cc(-c2[nH]c3c(c2Nc2ccccc2)C(=O)CN(C(=O)N(C)C(C)C)C3)ccn1` [Example 186, 2-(2-Acetamidopyridin-4-yl)-3-anilino-N-isopropyl-N-methyl-4-oxo-1,4,5,7-tetrahydro-6H-pyrrolo[2,3-c]pyridine-6-carboxamide], the IC50 under setting [1] was 0.003 µM.

`Nc1cc(-c2[nH]c3c(c2Nc2ccccc2)C(=O)COC3)ccn1` [Example 22, 2-(2-Aminopyridin-4-yl)-3-(phenylamino)-1,7-dihydropyrano[3,4-b]pyrrol-4(5H)-one]: under setting [1], the concentration for half-maximal inhibition (IC50) came to 0.503 µM.

Turning to `CSCC(=O)Nc1cc(-c2[nH]c3c(c2Nc2ccccc2)C(=O)COC3)ccn1` [Example 46, 2-(Methylsulfanyl)-N-{4-[4-oxo-3-(phenylamino)-1,4,5,7-tetrahydropyrano[3,4-b]pyrrol-2-yl]pyridin-2-yl}acetamide], under setting [1], the IC50 is 0.093 µM.

For the molecule `CC(=O)Nc1cc(-c2[nH]c3c(c2Nc2ccccc2)C(=O)CN(C(=O)N2CCCCC2)C3)ccn1` [Example 166, N-{4-[3-Anilino-4-oxo-6-(piperidin-1-ylcarbonyl)-4,5,6,7-tetrahydro-1H-pyrrolo[2,3-c]pyridin-2-yl]pyridin-2-yl}acetamide], the half-inhibitory concentration (IC50) under setting [1] amounted to 0.003 µM.

As for `CCn1c2c(c(Nc3ccccc3)c1-c1ccncc1)C(=O)CN(S(C)(=O)=O)C2` [Example 65, 1-Ethyl-6-(methylsulfonyl)-3-(phenylamino)-2-(pyridin-4-yl)-1,5,6,7-tetrahydro-4H-pyrrolo[2,3-c]pyridin-4-one], the IC50 under setting [1] worked out at 1.68 µM.

As to `Cc1nccc(-c2[nH]c3c(c2Nc2ccccc2)C(=O)CNC3)n1` [Example 16, 2-(2-Methylpyrimidin-4-yl)-3-(phenylamino)-1,5,6,7-tetrahydro-4H-pyrrolo[2,3-c]pyridin-4-one], the concentration for half-maximal inhibition (IC50) under setting [1] came to 0.949 µM.

`COc1cc(C(=O)Nc2cc(-c3[nH]c4c(c3Nc3ccccc3)C(=O)CN(C(=O)N3CCOCC3)C4)ccn2)ccc1F` [Example 260, 4-Fluoro-3-methoxy-N-4-[6-(morpholin-4-ylcarbonyl)-4-oxo-3(phenylamino)-4,5,6,7-tetrahydro-1H-pyrrolo[2,3-c]pyridin-2-yl]pyridin-2-ylbenzamide] came in with a concentration for half-maximal inhibition (IC50) of 0.008 µM.

Turning to `O=C(Nc1cc(-c2[nH]c3c(c2Nc2ccccc2)C(=O)COC3)ccn1)NC1CC1` [Example 55, 1-Cyclopropyl-3-{4-[4-oxo-3-(phenylamino)-1,4,5,7-tetrahydropyrano[3,4-b]pyrrol-2-yl]pyridin-2-yl}urea], the 50% inhibitory concentration (IC50) under setting [1] was 0.098 µM.

Consider `CC(=O)N1CC(=O)c2c([nH]c(-c3ccnc(NC(=O)c4ccc(F)cc4)c3)c2Nc2ccccc2)C1` [Example 271, N-4-[6-Acetyl-4-oxo-3-(phenylamino)-4,5,6,7-tetrahydro-1H-pyrrolo[2,3-c]pyridin-2-yl]pyridin-2-yl-4-fluorobenzamide], for which the IC50 under setting [1] worked out at 0.005 µM.

Consider `COC(=O)N1CC(=O)c2c([nH]c(-c3ccnc(NC(C)=O)c3)c2Nc2ccc(C)cc2)C1` [Example 321, Methyl 2-[2-(acetylamino)pyridin-4-yl]-3-[(4-methylphenyl)amino]-4-oxo-1,4,5,7-tetrahydro-6H-pyrrolo[2,3-c]pyridine-6-carboxylate], for which, under setting [1], the half-inhibitory concentration (IC50) stood at 0.113 µM.
